Values after ≈ are worked out from the molar mass of the structure shown. Read-outs that look alike come from different tables or passages of the source.
What was measured:
[1] = system: wild-type M. tuberculosis; experiment: microbe, parasite or virus in culture; assay type: cell-based, Mycobacterium tuberculosis; settings: for MIC / IC90: Mycobacterium tuberculosis
in vitro = in vitro ADME, human; settings: for microsomal clearance / stability (in words): human microsomes; for CLint scaled at 0.5 µM: human, microsomes, pH 7.4, human Clint
Method: Compounds (0.5 µM) were incubated with 0.25 mg/mL liver microsomal proteins at pH 7.4 at 37 °C. Reactions were initiated with […] and samples taken at 0, 5, 10, 15, 20 and 30 min. The reaction was stopped by addition of 95% ACN/5% MeOH containing an internal standard. Samples were combined in compound groups of six pre-sorted by mono molecular weight and analyzed by LC/MS/MS. The peak area ratios (analyte peak area/IS peak area) were converted to % remaining using the area ratio at time 0 as 100%. The. half-life (T ½) and intrinsic clearance (mCLint) were calculated.

[2] = Table 5, read-out: Wild-type MIC

SMILES | MIC ([1]; 120 h, read-out: MIC) | MIC ([1]; read-out: MIC) | anti-tubercular activity (in words) [1] | microsomal clearance / stability (in words) (in vitro) | CLint scaled at 0.5 µM (in vitro) | MIC [1, 2] | IC90 [1]
CC(C)(C)CC(C)(C)N1CC=C(c2c[nH]c3ccccc23)CC1 [Molecule 4PP-47, 3-(1-(2,4,4-Trimethylpentan-2-yl)-1,2,3,6-tetrahydropyridin-4-yl)-1H-indole] | 9.6 ± 2.2 µM (≈ 2.98 µg/mL) | 9.6 µM (≈ 2.98 µg/mL) | – | – | – | – | –
CC(C)(C)CC(C)(C)N1CCC(c2c[nH]c3ccccc23)CC1 [Molecule 4PP-48, 3-(1-(2,4,4-Trimethylpentan-2-yl)piperidin-4-yl)-1H-indole] | 1.6 µM (≈ 0.5 µg/mL) | 1.6 µM (≈ 0.5 µg/mL) | – | – | – | – | –
CC(C)(C)CC(C)(C)N1CCN(c2ccc(C(C)(C)C)cc2)CC1 [Molecule 4PP-49, 1-(4-(t-Butyl)phenyl)-4-(2,4,4-trimethylpentan-2-yl)piperazine] | > 5 µM | – | loss in activity | – | – | – | –
CC(C)(C)CC(C)(C)N1CCN(c2ccccc2)CC1 [Molecule 4PP-50, 1-Phenyl-4-(2,4,4-trimethylpentan-2-yl)piperazine] | > 10 µM | – | loss in activity | – | – | – | –
FC1CN(CC2CCCCC2)CCC1c1ccccc1.O=C(O)C(F)(F)F (centres unmarked) [Molecule 4PP-51, 1-(Cyclohexylmethyl)-3-fluoro-4-phenyl-piperidine; 2,2,2-trifluoroacetic acid] | > 20 µM | – | not tolerated | – | – | – | –
FC1CN(CC2CCCCC2)CCC1c1ccc(Cl)cc1.O=C(O)C(F)(F)F (centres unmarked) [Molecule 4PP-52, 4-(4-Chlorophenyl)-1-(cyclohexylmethyl)-3-fluoro-piperidine; 2,2,2-trifluoroacetic acid] | > 20 µM | – | not tolerated | – | – | – | –
COc1ccc(C2CCN(CC3CCCCC3)CC2F)cc1.O=C(O)C(F)(F)F (centres unmarked) [Molecule 4PP-53, 1-(Cyclohexylmethyl)-3-fluoro-4-(4-methoxyphenyl)piperidine; 2,2,2-trifluoroacetic acid] | > 20 µM | – | not tolerated | – | – | – | –
COc1cc(CCNC(=O)C2(c3ccccc3)CCC2)ccc1O [PCB-3, N-(4-hydroxy-3-methoxyphenethyl)-1-phenylcyclobutane-1-carboxamide] | > 20 µM | > 20 µM | – | clearance was improved | 12.5 L/h/kg | – | –
O=C(NCCc1ccc2c(c1)OCO2)C1(c2ccccc2)CCC1 [PCB-4, N-(2-(benzo[d][1,3]dioxol-5-yl)ethyl)-1-phenylcyclobutane-1-carboxamide] | 12 ± 2.6 µM (≈ 3.88 µg/mL) | – | retained anti-tubercular activity | intermediate clearance | 52.1 L/h/kg | – | –
O=C(NCCc1cccc(Br)c1)C1(c2ccccc2)CCC1 [PCB-5, N-(3-bromophenethyl)-1-phenylcyclobutane-1-carboxamide] | 4.9 ± 1.7 µM (≈ 1.76 µg/mL) | 4.9 µM (≈ 1.76 µg/mL) | – | – | 236 L/h/kg | – | –
O=C(NCCc1ccc(Br)cc1)C1(c2ccccc2)CCC1 [PCB-6, N-(4-bromophenethyl)-1-phenylcyclobutane-1-carboxamide] | 5.4 ± 0.3 µM (≈ 1.93 µg/mL) | 5.4 µM (≈ 1.93 µg/mL) | – | – | 35.6 L/h/kg | – | –
O=C(NCCc1cccc(C(F)(F)F)c1)C1(c2ccccc2)CCC1 [PCB-7, 1-phenyl-N-(3-(trifluoromethyl)phenethyl)cyclobutane-1-carboxamide] | 3.7 ± 2.7 µM (≈ 1.29 µg/mL) | 3.7 µM (≈ 1.29 µg/mL) | – | increased clearance | 270 L/h/kg | – | –
O=C(NCCc1cc(Br)ccn1)C1(c2ccccc2)CCC1 [PCB-8, N-(2-(4-bromopyridin-2-yl)ethyl)-1-phenylcyclobutane-1-carboxamide] | > 20 µM | > 20 µM | – | improved clearance | 69.7 L/h/kg | – | –
O=C(N[C@H]1CCc2ccc(Br)cc2C1)C1(c2ccccc2)CCC1 [PCB-9, (S)-N-(7-bromo-1,2,3,4-tetrahydronaphthalen-2-yl)-1-phenylcyclobutane-1-carboxamide] | 6.9 ± 2.9 µM (≈ 2.65 µg/mL) | 6.9 µM (≈ 2.65 µg/mL) | – | increased microsomal clearance | 273 L/h/kg | – | –
O=C(Nc1ncc2c(Br)cccc2n1)C1(c2ccccc2)CCC1 [PCB-10, N-(5-bromoquinazolin-2-yl)-1-phenylcyclobutane-1-carboxamide] | 9.3 ± 1 µM (≈ 3.56 µg/mL) | 9.3 µM (≈ 3.56 µg/mL) | – | reasonable clearance | 14.4 L/h/kg | – | –
O=C(NCC(O)c1ccc2c(c1)OCO2)C1(c2ccccc2)CCC1 (centres unmarked) [PCB-11, N-(2-(benzo[d][1,3]dioxol-5-yl)-2-hydroxyethyl)-1-phenylcyclobutane-1-carboxamide] | > 20 µM | > 20 µM | – | lower clearance | 9.66 L/h/kg | – | –
O=C(CNC(=O)C1(c2ccccc2)CCC1)c1cccc(Br)c1 [PCB-12, N-(2-(3-bromophenyl)-2-oxoethyl)-1-phenylcyclobutane-1-carboxamide] | 7.3 ± 0.3 µM (≈ 2.72 µg/mL) | – | tolerated | did not improve clearance | 47.3 L/h/kg | – | –
Brc1cccc(-c2nc(C3(c4ccccc4)CCC3)no2)c1 [PCB-13, 5-(3-bromophenyl)-3-(1-phenylcyclobutyl)-1,2,4-oxadiazole] | > 20 µM | – | loss of activity | high clearance | 266 L/h/kg | – | –
CN(CCc1cccc(Br)c1)C(=O)C1(c2ccccc2)CCC1 [PCB-14, N-(3-bromophenethyl)-N-methyl-1-phenylcyclobutane-1-carboxamide] | > 20 µM | – | inactive | highly metabolized | 447 L/h/kg | – | –
O=C(NCCc1cccc(Br)c1)C1(c2ccc(Cl)cc2)CCC1 [PCB-15, N-(3-bromophenethyl)-1-(4-chlorophenyl)cyclobutane-1-carboxamide] | 9.7 ± 6.7 µM (≈ 3.81 µg/mL) | – | slight reduction | clearances increased | 559 L/h/kg | – | –
O=C(NCCc1cccc(Br)c1)C1(c2cccc(Cl)c2)CCC1 [PCB-16, N-(3-bromophenethyl)-1-(3-chlorophenyl)cyclobutane-1-carboxamide] | 5 ± 1.6 µM (≈ 1.96 µg/mL) | – | little change | clearances increased | 552 L/h/kg | 5 µM (≈ 1.96 µg/mL) | –
O=C(NCCc1cccc(Br)c1)C1(c2ccccc2Cl)CCC1 [PCB-17, N-(3-bromophenethyl)-1-(2-chlorophenyl)cyclobutane-1-carboxamide] | 1.8 ± 0.7 µM (≈ 0.707 µg/mL) | – | increase in activity | clearances increased | 673 L/h/kg | 1.8 µM (≈ 0.707 µg/mL) | –
O=C(NCCc1cccc(Br)c1)C1(c2ccc(Cl)cc2Cl)CCC1 [PCB-18, N-(3-bromophenethyl)-1-(2,4-dichlorophenyl)cyclobutane-1-carboxamide] | 13 ± 5 µM (≈ 5.55 µg/mL) | – | low antitubercular activity | very low stability | 1690 L/h/kg | – | –
COc1ccc(-c2cc(N)nc(-n3nc(C)cc3C)n2)cc1 [PZP-1] | – | – | – | – | – | – | 5.2 µM
Cc1cc(C)n(-c2nc(N)cc(-c3cccc(F)c3)n2)n1 [PZP-2] | – | – | – | – | – | – | 7.4 µM
